Source: US20240043394A1, “PROTEASOME ENHANCERS AND USES THEREOF” (Board of Trustees of Michigan State University, priority 2020, published 2024)

Tests used:
[1] = target: T1, purified human 20S proteasome, Casp-L site (Homo sapiens, UniProt P25787+P60900); test: 20S proteasome small peptide assay, Z-LLE-AMC caspase-like probe; assay type: biochemical; conditions: for AC200 Casp-L site: concentration needed to double rate vs vehicle
T1 construct: purchased Boston Biochem or Life Sensors E-360 or ps020
Protocol: (§1) In vitro testing, 20S activation: The 20S proteasome activity of the compounds was assessed by utilizing the standard fluorogenic 7-amino-methylcoumarin (AMC) conjugated small peptide substrates that correspond to each of the catalytic sites in the 20S proteasome: chymotryptic-like site (Suc-LLVY-AMC), caspase-like site (Z-LLE-AMC), and trypsin-like site (Boc-LRR-AMC). When the small peptide substrate is degraded by the 20S proteasome, the AMC fluorophore is released and quantified to measure the rate of proteolytic cleavage. The 20S proteasome activity of the small molecules was evaluated at varying concentrations to determine the concentration at which the rate of proteolysis was doubled (i.e. the concentration needed to induce 200% activity) compared to the vehicle control (hereafter named as AC200). Concentrations ranging from 1.25 μM to 80 μM of each of compound were added to wells that contained 0.5 nM of purified human proteasome.
(§2) The overall enhancement of the rate of proteolysis of the 20S proteasome by a small molecule was first evaluated by adding a combination of all three peptide substrates to the treated sample. The combination of all three substrates represents a more accurate measurement of proteolytic activity of the proteasome because the catalytic sites housed in the β ring of the 20S proteasome communicate through allosteric interactions. For example, when a protein substrate encounters the chymotryptic-like site, a conformational change will occur activating the caspase-like site.^61 The individual contribution of each of the three catalytic sites was subsequently evaluated by adding only the corresponding peptide probes to gain insight into the contribution of each site on the overall enhanced proteolytic activity.
(§3) The fluorescent output, due to release of the AMC fluorophore, was then converted to the fold increase compared to a vehicle control sample, and the AC200 was calculated. […] (Table 1).
(§4) AC200 represents the concentration needed to double (e.g., 200%) the rate of substrate degradation compared to vehicle control. Max fold is the maximum fold rate increase compared to vehicle control.
(§5) 20S Proteasome Small Peptide Assay: Activity assays were carried out in a black flat/clear bottom 96 well plate with a […] volume. Concentrations of the potential activators, varying from 80 μM to 1.25 μM, were added to the well that contained 1 nM 20S proteasome purchased from either Boston Biochem (catalog number E-360) or Life Sensors (catalog number ps020), in a […] buffer at a pH of 7.8. This solution was left to incubate at 37° C. for 15 minutes. For the assay for the overall proteasome activity, 13.33 μM of each small peptide substrate is added. The 96 well plate is then placed into a plate reader (SpectraMax M5e spectrometer) and the plate reader will take a fluorescent reading every 5 minutes for an hour at 37° C. The enzymatic activity of the 20S proteasome is quantified using the fluorescent output at 380-460 nm, which is converted to max fold increase over the untreated sample. The activity of the individual catalytic assays is identical to the assay that assesses the overall activity of the 20S proteasome except only one small peptide substrate is added. To evaluate the activity of the CT-L and the Casp-L sites, 10 μM of the Suc-LLVY-AMC (Boston Biochem S-280) and Z-LLE-AMC (Boston Biochem S-230) were added, respectively. To evaluate the activity of the T-L site, 20 μM of the Boc-LRR-AMC (Boston Biochem S-300) is added.

[2] = target: T2, purified human 20S proteasome, CT-L site (Homo sapiens, UniProt P25787+P60900); test: 20S proteasome small peptide assay, Suc-LLVY-AMC chymotryptic-like probe; assay type: biochemical; conditions: for AC200 CT-L site: concentration needed to double rate vs vehicle; for Max Fold CT-L site: maximum fold rate increase vs vehicle
T2 construct: purchased Boston Biochem or Life Sensors E-360 or ps020
Protocol: as §1, §2, §3, §4, §5

[3] = target: T3, purified human 20S proteasome, T-L site (Homo sapiens, UniProt P25787+P60900); test: 20S proteasome small peptide assay, Boc-LRR-AMC trypsin-like probe; assay type: biochemical; conditions: for AC200 T-L site: concentration needed to double rate vs vehicle
T3 construct: purchased Boston Biochem or Life Sensors E-360 or ps020
Protocol: as §1, §2, §3, §4, §5

26S proteasome = 26S proteasome (Homo sapiens, UniProt P25787+P60900); test: Fluorogenic small peptide degradation assay with the 26S proteasome (ATP and magnesium chloride added); assay type: biochemical; conditions: for 26S proteasome activation, in words: concentration range 0-80 μM
Protocol: The fluorogenic small peptide degradation assay was conducted again, with the 26S proteasome in place of the 20S proteasome. To ensure that the 26S proteasome remained in its fully assembled complex, ATP and magnesium chloride were added.

[4] = target: T4, purified human 20S proteasome (Homo sapiens, UniProt P25787+P60900); test: 20S proteasome small peptide assay, combination of all three fluorogenic substrates (CT-L/Casp-L/T-L); assay type: biochemical; conditions: three probes combined; for AC200 CT-L/Casp-L/T-L: concentration needed to double (200%) the rate of substrate degradation vs vehicle; for Max Fold CT-L/Casp-L/T-L: maximum fold rate increase vs vehicle control
T4 construct: purchased Boston Biochem or Life Sensors E-360 or ps020
Protocol: as §1, §2, §3, §4, §5

[5] = target: T4, purified human 20S proteasome; test: Digestion of purified α-synuclein by purified 20S proteasome (silver staining); assay type: biochemical
Protocol: Quantification of α-synuclein degradation by each compound was done in triplicate. One-way ANOVA statistical analysis was used to determine statistical significance (ns=not significant, *p<0.05, *p<0.01, ***p<0.001, ****p<0.0001).
In vitro testing, IDP degradation: The ability of our small molecules 20S proteasome activators to degrade pathologically relevant IDPs was evaluated in vitro and in cells. […] Then, purified α-synuclein was added and the digestion was incubated at 37° for 6 hours. An SDS loading buffer was added and the samples were boiled to halt α-synuclein degradation. The percentage of remaining α-synuclein was visualized and quantified using silver staining (FIG. 3). Compound 2 was able to increase the rate of degradation of full length α-synuclein. At the highest concentration (5 μM), α-synuclein was reduced up to 33%.
Digestion of purified α-synuclein: Degradation assays were carried out in a 50 μL reaction volume of […] buffer at a pH of 7.8, 0.5 μM of purified α-synuclein, and 7.5 nM purified human 20S proteasome. The 20S proteasome was first diluted to 8.56 nM in the Tris-HCl buffer and 1 μL of the test compounds or DMSO was added. This mixture was incubated for 20 minutes at 37° C. After this incubation, 5 μL of a 5 μM stock of α-synuclein was added. The degradation mixture was incubated at 37° C. for 5 hours. The reaction was stopped with addition of concentrated SDS loading buffer and boiled for 10 minutes. After the samples were boiled, they were resolved on a 4-20% Tris-glycine SDS-PAGE gel and visualized using silver staining.

[6] = tested on: A53T mutant α-synuclein in Hek-293T cells; test: In cell degradation of A53T α-synuclein (Western blot); assay type: cell-based; conditions: 10 hours
Protocol: Error bars denote standard deviation. One-way ANOVA statistical analysis was used to determine statistical significance (ns=not significant, *p<0.05, **p<0.01, ***p<0.001, ****p<0.0001) (FIG. 4B).
Cellular efficacy: The A53T mutation of α-synuclein has been linked to early on-set familial Parkinson's disease and appears to oligomerize faster than the wild-type protein. […] Hek-293T cells were transiently transfected with an inducible Tet-One A53T mutant α-synuclein. The cells were treated with 100 ng/mL of doxycycline to induce the production of the A53T mutant. […] The cells were then lysed and the remaining A53T α-synuclein was visualized and quantified via Western Blotting (FIG. 4, n=4).
In cell degradation of A53T α-synuclein: In a 6 well plate, Hek293T cells were grown to 80% confluency and then transfected using Xfect biopolymer transfection system with the Tet-One A53T α-synuclein plasmid. 24 hours post transfection, 100 ng/mL of doxycycline was added to induce A53T α-synuclein expression. After 24 hours of protein induction, media was removed that contained the doxycycline and was washed with PBS. Media with the desired drug concentration or DMSO was added and treated for 10 hours. After the cells were treated with the test compounds or DMSO, the cells were scraped and the pelleted (300 g for 5 minutes). The supernatant was taken off and the cell pellet was washed with ice cold PBS and then lysed with RIPA buffer with added protease inhibitors. The cell lysate was incubated for 20 minutes on ice. The lysate was centrifuged for 15 minutes at 500 g and then the supernatant was collected. Concentrated SDS loading buffer was added and the samples were boiled for 10 minutes. The samples were then resolved on a 4-20% Tris-glycine SDS-PAGE gel and immunoblotted with mouse monoclonal anti α-synuclein IgG (1:2000) and anti-mouse HRP-linked IgG (1:2000). Blots were developed with ECL Westem reagent and imaged with an Azure Biosystems 3000 imager.

[7] = maximum fold rate increase vs vehicle

Row | Structure (SMILES) | AC200 Casp-L site [1] [µM] | AC200 CT-L site [2] [µM] | Max Fold CT-L site [2] [fold] | AC200 T-L site [3] [µM] | 26S proteasome activation, maximum fold increase over the vehicle control (26S proteasome; at higher concentrations (range 0-80 μM)) [fold] | 26S proteasome activation, in words (26S proteasome) | AC200 CT-L/Casp-L/T-L [4] [µM] | Max Fold CT-L/Casp-L/T-L [4] [fold] | Max Fold Casp-L site [1, 7] [fold] | Max Fold T-L site [3, 7] [fold] | depletion of α-synuclein over concentration range, in words ([5]; 0.1 μM to 5 μM) | decrease of α-synuclein ([5]; 0.5 μM compound, 37° C., 6 hours) [%] | reduction of α-synuclein ([5]; 5 μM compound, 37° C., 6 hours) [%] | reduction of A53T mutant α-synuclein, in words ([6]; 3 μM (lowest concentration)) | decrease of accumulated A53T α-synuclein ([6]; 10 μM, normalized to vehicle) [%]
1 | CN(C)CCCN1c2ccccc2Sc2ccc(Cl)cc21 [CPZ, chlorpromazine, reference compound] | >80 | 7 | 8 | >80 | 2 | did not enhance the proteolytic activity of the 26S proteasome | 13.5 | ~4 | – | – | – | – | – | – | –
2 | O=C(CCN1c2ccccc2Sc2ccc(Cl)cc21)N(c1ccc(F)cc1)c1ccc(F)cc1 [Compound 19, 3-(2-chloro-10H-phenothiazin-10-yl)-N,N-bis(4-fluorophenyl)propanamide] | 1.8 | 0.7 | 9.4 | 0.3 | – | did not display any 26S proteasome activation | 0.4 | 11 | 9.4 | 6 | clear dose dependent depletion | 34 | 57 | reduce the concentration of the A53T mutant α-synuclein significantly | 58
